Legend:
Z-138 cells = assay: Z-138 Proliferation Assay (Cell Titer Glo, 5 days); assay type: cell-based; details: Homo sapiens, Table D-2
Description: Z-138 Proliferation Assay
Z-138 suspension cells were purchased from ATCC (American Type Culture Collection, Manassas, Va.). RPMI/Glutamax medium, penicillin-streptomycin, heat inactivated fetal bovine serum were purchased from Life Technologies, Grand Island, N.Y., USA. V-bottom polypropylene 384-well plates were purchased from Greiner Bio-One, Monroe, N.C., USA. Cell culture 384-well white opaque plates were purchased from Perkin Elmer, Waltham, Mass., USA. Cell-Titer Gb® was purchased from Promega Corporation, Madison, Wis., USA. SpectraMax M5 plate reader was purchased from Molecular Devices LLC, Sunnyvale, Calif., USA.
Z-138 suspension cells were maintained in growth medium (RPMI 1640 supplemented with 10% v/v heat inactivated fetal bovine serum and cultured at 37° C. under 5% CO2. Under assay conditions, cells were incubated in assay medium (RPMI 1640 supplemented with 10% v/v heat inactivated fetal bovine serum and 100 units/mL penicillin-streptomycin) at 37° C. under 5% CO2.
For the assessment of the effect of compounds on the proliferation of the Z-138 cell line, exponentially growing cells were plated in 384-well white opaque plates at a density of 10,000 cells/ml in a final volume of 50 μl of assay medium. A compound source plate was prepared by performing triplicate nine-point 3-fold serial dilutions in DMSO, beginning at 10 mM (final top concentration of compound in the assay was 20 μM and the DMSO was 0.2%). A 100 nL aliquot from the compound stock plate was added to its respective well in the cell plate. […] After addition of compounds, assay plates were incubated for 5 days at 37° C., 5% CO2, relative humidity >90%.
Cell viability was measured by quantitation of ATP present in the cell cultures, adding 35 μl of Cell Titer Glo® reagent to the cell plates. Luminescence was read in the SpectraMax M5 microplate reader. The concentration of compound inhibiting cell viability by 50% was determined using a 4-parametric fit of the normalized dose response curves.

PRMT5/MEP50 = biological target: T1, PRMT5/MEP50 (Homo sapiens, UniProt O14744); assay: PRMT5 Biochemical Assay (PRMT5/MEP50 enzyme assay on peptide substrate, 3H-SAM Flashplate); details: Table D-2; read-out: Biochemical IC50
T1 construct: Expressed full-length human Flag-PRMT5/6His-MeP50 protein complex was purified; made in house; host or cells: Spodoptera frugiperda (SF9) insect cells, baculovirus (pDEST8)
T1 sequence (O14744 with tags, fused parts or gaps): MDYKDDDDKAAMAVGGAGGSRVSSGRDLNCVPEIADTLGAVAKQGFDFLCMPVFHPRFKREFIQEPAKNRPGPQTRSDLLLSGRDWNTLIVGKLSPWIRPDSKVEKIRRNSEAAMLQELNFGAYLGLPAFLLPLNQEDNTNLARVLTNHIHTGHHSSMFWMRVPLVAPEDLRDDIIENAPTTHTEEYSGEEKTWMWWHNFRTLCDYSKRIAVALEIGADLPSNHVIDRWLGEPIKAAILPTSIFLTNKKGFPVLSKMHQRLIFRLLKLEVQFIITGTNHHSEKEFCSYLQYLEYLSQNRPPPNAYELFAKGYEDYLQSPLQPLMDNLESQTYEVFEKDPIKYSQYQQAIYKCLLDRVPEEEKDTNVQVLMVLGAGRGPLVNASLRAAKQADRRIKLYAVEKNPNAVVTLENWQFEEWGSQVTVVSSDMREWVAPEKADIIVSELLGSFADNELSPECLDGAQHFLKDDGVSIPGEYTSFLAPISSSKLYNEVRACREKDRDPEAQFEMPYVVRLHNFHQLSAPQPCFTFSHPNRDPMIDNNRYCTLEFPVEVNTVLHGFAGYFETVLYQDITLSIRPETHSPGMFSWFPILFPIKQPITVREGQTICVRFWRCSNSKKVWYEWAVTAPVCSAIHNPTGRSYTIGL
T1 sequence (Q9BQA1 with tags, fused parts or gaps partner limits assumed): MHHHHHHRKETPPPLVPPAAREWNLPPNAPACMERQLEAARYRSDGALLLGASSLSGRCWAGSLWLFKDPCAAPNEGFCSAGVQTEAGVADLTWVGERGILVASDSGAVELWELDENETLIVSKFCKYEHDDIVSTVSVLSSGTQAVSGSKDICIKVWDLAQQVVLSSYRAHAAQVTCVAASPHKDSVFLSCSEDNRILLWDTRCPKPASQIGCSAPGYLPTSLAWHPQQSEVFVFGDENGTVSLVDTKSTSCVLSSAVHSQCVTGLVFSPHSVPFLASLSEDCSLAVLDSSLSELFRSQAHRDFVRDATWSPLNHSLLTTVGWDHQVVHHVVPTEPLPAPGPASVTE

SMILES	EC50 (Z-138 cells) [µM]	IC50 (PRMT5/MEP50) [µM]
OC(COc1cccc(CNC2CCCC2)c1)CN1CCc2ccccc2C1 (centres unmarked) [Compound D1]	10 to 40	0.101 to 1
OC(COc1ccc(-n2cncn2)cc1)CN1CCc2ccccc2C1 (centres unmarked) [Compound D9]	> 20	1 to 10
OC(COCc1ccc(OCc2ccccc2)cc1)CN1CCc2ccccc2C1 (centres unmarked) [Compound D12]	> 20	1 to 10
O=S1(=O)CCN(c2ccc(OCC(O)CN3CCc4ccccc4C3)cc2)CC1 (centres unmarked) [Compound D18]	> 20	1 to 10
OC(COC1CCN(Cc2ccccc2)CC1)CN1CCc2ccccc2C1 (centres unmarked) [Compound D21]	> 40	1 to 10
O[C@H](COc1cccc(CNC2CCCC2)c1)CN1CCc2ccccc2C1 [Compound D22]	10 to 40	
O[C@@H](COc1cccc(CNC2CCCC2)c1)CN1CCc2ccccc2C1 [Compound D23]	10 to 40	
CN(Cc1ccc(OCC(O)CN2CCc3ccccc3C2)cc1)C1CCCC1 (centres unmarked) [Compound D24]	> 40	1 to 10
OC(COc1ccc(C2CCNCC2)cc1)CN1CCc2ccccc2C1 (centres unmarked) [Compound D25]	10 to 40	1 to 10
CC(C)n1nccc1-c1ccc(OCC(O)CN2CCc3ccccc3C2)cc1 (centres unmarked) [Compound D26]	> 40	10 to 40
CC(C)n1ccc(-c2ccc(OCC(O)CN3CCc4ccccc4C3)cc2)n1 (centres unmarked) [Compound D27]	> 40	1 to 10
Cc1nn(-c2ccccc2)c(C)c1COCC(O)CN1CCc2ccccc2C1 (centres unmarked) [Compound D28]	> 40	1 to 10
COc1cccc2c1CN(CC(O)COc1cccc(CNC3CCCC3)c1)CC2 (centres unmarked) [Compound D29]	10 to 40	10 to 40
COc1cc2c(cc1OC)CN(CC(O)COc1cccc(CNC3CCCC3)c1)CC2 (centres unmarked) [Compound D30]	10 to 40	> 40
CC(C(O)COc1cccc(CNC2CCCC2)c1)N1CCc2ccccc2C1 (centres unmarked) [Compound D33]	> 40	1 to 10
O=C(c1ccc(Cn2ccc(-c3ccc(OCC(O)CN4CCc5ccccc5C4)cc3)n2)cc1)N1CCCC1 (centres unmarked) [Compound D34]	10 to 40	1 to 10
CCC1c2ccccc2CCN1CC(O)COc1cccc(-c2ccc3ncn(C)c3c2)c1 (centres unmarked) [Compound D179]	> 20	0.101 to 1
Cc1cccc2c1CN(CC(O)COc1cccc(-c3ccc4ncn(C)c4c3)c1)CC2 (centres unmarked) [Compound D192]		1 to 10

SMILES	EC50 (Z-138 cells) [µM]	IC50 (PRMT5/MEP50) [µM]
CCOC(=O)C1c2ccccc2CCN1CC(O)COc1cccc(-c2ccc3ncn(C)c3c2)c1 (centres unmarked) [Compound D193]		> 40
OC(COc1cccc(N2CCc3[nH]nc(-c4ccccc4)c3C2)c1)CN1CCc2ccccc2C1 (centres unmarked) [Compound D194]		1 to 10
Cn1cncc1C(=O)Nc1cccc(OCC(O)CN2CCc3ccccc3C2)c1 (centres unmarked) [Compound D195]		1 to 10
CN(C(=O)c1cnco1)c1cccc(OCC(O)CN2CCc3ccccc3C2)c1 (centres unmarked) [Compound D196]		1 to 10
CN(C(=O)c1cn(C)cn1)c1cccc(OCC(O)CN2CCc3ccccc3C2)c1 (centres unmarked) [Compound D197]		1 to 10
CN(C(=O)c1cocn1)c1cccc(OCC(O)CN2CCc3ccccc3C2)c1 (centres unmarked) [Compound D198]		10 to 40
Cn1cnc2ccc(-c3cccc(OCC(O)CN4CCc5ccccc5C4CC(N)=O)c3)cc21 (centres unmarked) [Compound D202]		> 40
CN(C(=O)c1cncn1C)c1cccc(OCC(O)CN2CCc3ccccc3C2)c1 (centres unmarked) [Compound D203]		1 to 10
CN(C(=O)c1cccnc1)c1cccc(OCC(O)CN2CCc3ccccc3C2)c1 (centres unmarked) [Compound D204]		1 to 10
CNC(=O)Cn1ccc2cnc(-c3cccc(OCC(O)CN4CCc5ccccc5C4)c3)nc21 (centres unmarked) [Compound D206]		1 to 10
Cn1cnc2ccc(-c3cccc(OCC(O)CN4CCc5ccccc5C4(C)C)c3)cc21 (centres unmarked) [Compound D211]		1 to 10
Cc1ccc2c(c1)CN(CC(O)COc1cccc(-c3ccc4ncn(C)c4c3)c1)CC2 (centres unmarked) [Compound D212]		1 to 10
Cc1cccc2c1CCN(CC(O)COc1cccc(-c3ccc4ncn(C)c4c3)c1)C2 (centres unmarked) [Compound D213]		1 to 10
Cn1cnc2ccc(-c3cccc(OCC(O)CN4CCc5ccc(Cl)cc5C4)c3)cc21 (centres unmarked) [Compound D214]		1 to 10
Cn1cnc2ccc(-c3cccc(OCC(O)CN4CCc5c(Cl)cccc5C4)c3)cc21 (centres unmarked) [Compound D215]		1 to 10
Cn1cnc2ccc(-c3cccc(OCC(O)CN4CCc5ccccc5C4=O)c3)cc21 (centres unmarked) [Compound D225]		> 40
Cn1ccc2ccc(-c3ccnc(NCC(O)CN4CCc5ccccc5C4)c3)cc21 (centres unmarked) [Compound D227]		< 0.1

Source: patent US20150344457A1, “METHODS OF INHIBITING PRMT5” (EPIZYME, INC., priority 2012, published 2015)
